Results published in ChEMBL document CHEMBL6177971, “Iterative Optimization Yields Stapled Peptides with Superior Pharmacokinetics and Potency for Renal Fibrosis Treatment” (J Med Chem, 2025).
Calls of active or inactive are those of the source. No cut-off for these calls is given here.

How the values were obtained:
Mus musculus [1] = assay: Anti-fibrotic activity in C57BL/6J mouse model of unilateral ureteral obstruction assessed as decrease in fibronectin mRNA level at 0.25 mg/kg, ip administered every day for 7 days by qPCR analysis; type: functional, organism-based; conditions: time 7.0 day
NIH3T3 [2] = assay: Inhibition of TGF-beta1-induced EMT in mouse NIH3T3 cells assessed as decrease in alpha-SMA level at 10 uM incubated for 48 hrs by Western blot analysis; type: functional, cell-based
Mus musculus [3] = assay: Anti-fibrotic activity in C57BL/6J mouse model of unilateral ureteral obstruction assessed as decrease in renal fibronectin […] level administered intraperitoneally every day for 7 days by IHC analysis; type: functional, organism-based; conditions: dose 0.05-1.25 mg/kg, route ip, time 7.0 day
NIH3T3 [4] = assay: Inhibition of myofibroblast activation in TGF-beta1-induced EMT in mouse NIH3T3 cells assessed as decrease in collagen I mRNA level at 1 to 2 uM incubated for 48 hrs by qPCR analysis; type: functional, cell-based; conditions: dose 1-2 µM
HK-2 [5] = assay: Inhibition of myofibroblast activation in TGF-beta1-induced EMT in human HK-2 cells assessed as decrease in fibronectin level at 1 to 10 uM incubated for 24 hrs by Western blot analysis; type: functional, cell-based; conditions: dose 1-10 µM
NIH3T3 [6] = assay: Inhibition of myofibroblast activation in TGF-beta1-induced EMT in mouse NIH3T3 cells assessed as decrease in fibronectin mRNA level at 1 to 2 uM incubated for 48 hrs by qPCR analysis; type: functional, cell-based; conditions: dose 1-2 µM
Mus musculus [7] = assay: Anti-fibrotic activity in C57BL/6J mouse model of unilateral ureteral obstruction assessed as decrease in alpha-SMA level at 0.25 mg/kg, ip administered every day for 7 days by Western blot analysis; type: functional, organism-based; conditions: time 7.0 day
Mus musculus [8] = assay: Anti-fibrotic activity in C57BL/6J mouse model of unilateral ureteral obstruction assessed as decrease in fibronectin level at 0.25 mg/kg, ip administered every day for 7 days by Western blot analysis; type: functional, organism-based; conditions: time 7.0 day
[9] = Half life in male C57BL/6J mouse at 2.8 mg/kg, iv measured for 3 to 240 mins by UHPLC-HRMS analysis; type: ADME, organism-based; conditions: in vivo, time 3-240 min
[10] = AUC (0 to infinity) in male C57BL/6J mouse at 2.8 mg/kg, iv measured for 3 to 240 mins by UHPLC-HRMS analysis; type: ADME, organism-based; conditions: in vivo, time 3-240 min
NIH3T3 [11] = assay: Inhibition of TGF-beta1-induced EMT in mouse NIH3T3 cells assessed as decrease in fibronectin level at 10 uM incubated for 48 hrs by Western blot analysis; type: functional, cell-based
Mus musculus [12] = assay: Anti-fibrotic activity in C57BL/6J mouse model of unilateral ureteral obstruction assessed as decrease in vimentin mRNA level at 0.25 mg/kg, ip administered every day for 7 days by qPCR analysis; type: functional, organism-based; conditions: time 7.0 day
Mus musculus [13] = assay: Anti-fibrotic activity in C57BL/6J mouse model of unilateral ureteral obstruction assessed as minimum effective dose administered intraperitoneally every day for 7 days; type: functional; conditions: route ip; time 7 day
NIH3T3 [14] = assay: Inhibition of myofibroblast activation in TGF-beta1-induced EMT in mouse NIH3T3 cells assessed as decrease in alpha-SMA mRNA level at 1 to 2 uM incubated for 48 hrs by qPCR analysis; type: functional, cell-based; conditions: dose 1-2 µM
NIH3T3 [15] = assay: Inhibition of myofibroblast activation in TGF-beta1-induced EMT in mouse NIH3T3 cells assessed as decrease in MMP2 level at 1 to 2 uM incubated for 48 hrs by Western blot analysis; type: functional, cell-based; conditions: dose 1-2 µM
NIH3T3 [16] = assay: Inhibition of myofibroblast activation in TGF-beta1-induced EMT in mouse NIH3T3 cells assessed as decrease in alpha-SMA level incubated for 48 hrs by Western blot analysis; type: functional, cell-based; conditions: dose 1-10 µM
Mus musculus [17] = assay: Anti-fibrotic activity in C57BL/6J mouse model of unilateral ureteral obstruction assessed as decrease in renal inflammation at 0.05 to 1.25 mg/kg, ip administered every day for 7 days by H and E staining based analysis; type: functional, organism-based; conditions: dose 0.05-1.25 mg/kg, time 7.0 day
Mus musculus [18] = assay: Anti-fibrotic activity in C57BL/6J mouse model of unilateral ureteral obstruction assessed as decrease in kidney edema at 0.05 to 1.25 mg/kg, ip administered every day for 7 days; type: functional, organism-based; conditions: dose 0.05-1.25 mg/kg, time 7.0 day
HK-2 [19] = assay: Inhibition of myofibroblast activation in TGF-beta1-induced EMT in human HK-2 cells assessed as decrease in ACTA2 mRNA level at 1 to 5 uM incubated for 24 hrs by qPCR analysis; type: functional, cell-based; conditions: dose 1-5 µM
Mus musculus [20] = assay: Anti-fibrotic activity in C57BL/6J mouse model of unilateral ureteral obstruction assessed as decrease in renal alpha-SMA […] level administered intraperitoneally every day for 7 days by IHC analysis; type: functional, organism-based; conditions: dose 0.05-1.25 mg/kg, route ip, time 7.0 day
[21] = Half life of compound; type: physicochemical
HK-2 [22] = assay: Inhibition of myofibroblast activation in TGF-beta1-induced EMT in human HK-2 cells assessed as decrease in VIM mRNA level at 1 to 5 uM incubated for 24 hrs by qPCR analysis; type: functional, cell-based; conditions: dose 1-5 µM
NIH3T3 [23] = assay: Inhibition of myofibroblast activation in TGF-beta1-induced EMT in mouse NIH3T3 cells assessed as decrease in vimentin mRNA level at 1 to 2 uM incubated for 48 hrs by qPCR analysis; type: functional, cell-based; conditions: dose 1-2 µM
Mus musculus [24] = assay: Anti-fibrotic activity in C57BL/6J mouse model of unilateral ureteral obstruction assessed as decrease in MMP2 level at 0.25 mg/kg, ip administered every day for 7 days by Western blot analysis; type: functional, organism-based; conditions: time 7.0 day
[25] = MRT in male C57BL/6J mouse at 2.8 mg/kg, iv measured for 3 to 240 mins by UHPLC-HRMS analysis; type: ADME, organism-based; conditions: in vivo, time 3-240 min
Mus musculus [26] = assay: Anti-fibrotic activity in C57BL/6J mouse model of unilateral ureteral obstruction assessed as decrease in yellowish appearance of kidney at 0.05 to 1.25 mg/kg, ip administered every day for 7 days; type: functional, organism-based; conditions: dose 0.05-1.25 mg/kg, time 7.0 day
[27] = Volume of distribution in male C57BL/6J mouse at 2.8 mg/kg, iv measured for 3 to 240 mins by UHPLC-HRMS analysis; type: ADME, organism-based; conditions: in vivo, time 3-240 min
NIH3T3 [28] = assay: Cytotoxicity against mouse NIH3T3 cells assessed as inhibition of cell viability at 10 to 40 uM incubated for 48 hrs by CCK8 assay; type: toxicity, cell-based; conditions: nih3t3, 48 h, dose 10-40 µM
Mus musculus [29] = assay: Anti-fibrotic activity in C57BL/6J mouse model of unilateral ureteral obstruction assessed as decrease in collagen I level at 0.25 mg/kg, ip administered every day for 7 days by Western blot analysis; type: functional, organism-based; conditions: time 7.0 day
HK-2 [30] = assay: Inhibition of myofibroblast activation in TGF-beta1-induced EMT in human HK-2 cells assessed as decrease in MMP-2 level at 1 to 5 uM incubated for 24 hrs by Western blot analysis; type: functional, cell-based; conditions: dose 1-5 µM
Mus musculus [31] = assay: Anti-fibrotic activity in C57BL/6J mouse model of unilateral ureteral obstruction assessed as decrease in MMP2 mRNA level at 0.25 mg/kg, ip administered every day for 7 days by qPCR analysis; type: functional, organism-based; conditions: time 7.0 day
[32] = Stability in C57BL/6J mouse serum assessed as proteolysis resistance measured up to 72 hrs by HPLC analysis; type: ADME, cell-free
HK-2 [33] = assay: Cytotoxicity against human HK-2 cells assessed as inhibition of cell viability at 160 uM incubated for 24 hrs by CCK8 assay; type: toxicity, cell-based; conditions: hk-2, 24 h

In the case of CCCCCCCCCCCC(=O)N[C@H](CC(=O)O)C(=O)N[C@@H](Cc1c[nH]cn1)C(=O)N[C@@H](CC(N)=O)C(=O)N[C@H]1CSCCCCCCSC[C@@H](C(N)=O)NC(=O)[C@@H](C)NC(=O)[C@H](CCC(N)=O)NC(=O)[C@@H]2CCCN2C1=O, the Activity (Mus musculus [1]) is reported as “Active”, the inhibition (NIH3T3 [2]) is reported as “Active” and the Activity (Mus musculus [3]) is reported as “Dose-dependent-effect”. For the same molecule, the inhibition (NIH3T3 [4]) was “Active”, the inhibition (HK-2 [5]) was “Active; No Additional Suppression Observed At Concentrations Above 5 Î¼M” and the inhibition (NIH3T3 [6]) was “Active”. For the same molecule, the Activity (Mus musculus [7]) was “Active”, the Activity (Mus musculus [8]) was “Active” and the half-life [9] was 1.08 h. The AUC(0-inf) [10] was 1940 ng·h/mL, the inhibition (NIH3T3 [11]) was “Active” and the Activity (Mus musculus [12]) was “Active”. The MEC (Mus musculus [13]) was 0.05 mg/kg, the inhibition (NIH3T3 [14]) was “Active” and the inhibition (NIH3T3 [15]) was “Active”. For the same molecule, the inhibition (NIH3T3 [16]) was “Active; No Further Enhancement In Antifibrotic Activity Was Observed At Concentrations Above 2 Î¼M”, the Activity (Mus musculus [17]) was “Active” and the Activity (Mus musculus [18]) was “Active”. The inhibition (HK-2 [19]) was “Active”, the Activity (Mus musculus [20]) was “Dose-dependent-effect” and the half-life [21] was 27 h. The inhibition (HK-2 [22]) was “Active”, the inhibition (NIH3T3 [23]) was “Active” and the Activity (Mus musculus [24]) was “Active”. For the same molecule, the MRT [25] was 0.337 h, the Activity (Mus musculus [26]) was “Active” and the Vd [27] was 0.044 L. For the same molecule, the Activity (NIH3T3 [28]) was “Non-toxic”, the Activity (Mus musculus [29]) was “Active” and the inhibition (HK-2 [30]) was “Active”. For the same molecule, the Activity (Mus musculus [31]) was “Active”, the Stability [32] was “Stable” and the Activity (HK-2 [33]) was “Non-toxic”.
